Assay results published in PMC6858927 (Investigational new drugs, 2019).
Read-outs that look alike come from different tables or passages of the source.

[1] = Cohort A: 200mg, cytarabine, Daunorubicin (n=5), Total
[2] = Cohort A: 200mg, cytarabine, Daunorubicin (n=5), grade 1&2
[3] = Cohort A: 200mg, cytarabine, Daunorubicin (n=5), grade 3+
[4] = Cohort B Dose 2: 400mg, Decitabine (n=2), Total
[5] = Cohort B Dose 2: 400mg, Decitabine (n=2), grade 1&2
[6] = Cohort B Dose 2: 400mg, Decitabine (n=2), grade 3+

C1=C/COCc2cc(ccc2OCCN2CCCC2)Nc2nccc(n2)-c2cccc(c2)COC/1 [Pacritinib, 11-(2-pyrrolidin-1-yl-ethoxy)-14,19-dioxa-5,7,26-triaza-tetracyclo[19.3.1.1(2,6). 1(8,12)]heptacosa-1(25),2(26),3,5,8,10,12(27),16,21,23-decaene]
4 (80): PRURITUS, patients (%) [1] | WHITE BLOOD CELL DECREASED, patients (%) [1] | ELECTROCARDIOGRAM QT CORRECTED INTERVAL PROLONGED, patients (%) [2] | PRURITUS, patients (%) [2] | WHITE BLOOD CELL DECREASED, patients (%) [3]
2 (40): HYPOXIA, patients (%) [1] | MUCOSITIS ORAL, patients (%) [1] | NEUTROPHIL COUNT DECREASED, patients (%) [1] | RASH MACULO-PAPULAR, patients (%) [1] | RASH, patients (%) [1] | RESPIRATORY FAILURE, patients (%) [1] | HYPOALBUMINEMIA, patients (%) [2] | MUCOSITIS ORAL, patients (%) [2] | RASH, patients (%) [2] | HYPOXIA, patients (%) [3] | LYMPHOCYTE COUNT DECREASED, patients (%) [3] | NEUTROPHIL COUNT DECREASED, patients (%) [3] | RESPIRATORY FAILURE, patients (%) [3]
2 (100): ANEMIA, patients (%) [4]
Four: ELECTROCARDIOGRAM QT CORRECTED INTERVAL PROLONGED, patients (%) (Cohort A: 200mg, cytarabine, Daunorubicin (n=5), grade 1&2, listed as pacritinib)
5 (100): PLATELET COUNT DECREASED, patients (%) [1] | PLATELET COUNT DECREASED, patients (%) [3]
0: VOMITING, patients (%) [1] | ANEMIA, patients (%) [2] | ANOREXIA, patients (%) [2] | CONSTIPATION, patients (%) [2] | FEBRILE NEUTROPENIA, patients (%) [2] | HYPOPHOSPHATEMIA, patients (%) [2] | HYPOXIA, patients (%) [2] | LUNG INFECTION, patients (%) [2] | NEUTROPHIL COUNT DECREASED, patients (%) [2] | PLATELET COUNT DECREASED, patients (%) [2] | RESPIRATORY FAILURE, patients (%) [2] | VOMITING, patients (%) [2] | WHITE BLOOD CELL DECREASED, patients (%) [2] | ACTIVATED PARTIAL THROMBOPLASTIN TIME PROLONGED, patients (%) [3] | ANOREXIA, patients (%) [3] | CONSTIPATION, patients (%) [3] | DIARRHEA, patients (%) [3] | DYSPNEA, patients (%) [3] | EDEMA LIMBS, patients (%) [3] | ELECTROCARDIOGRAM QT CORRECTED INTERVAL PROLONGED, patients (%) [3] | FATIGUE, patients (%) [3] | HYPERGLYCEMIA, patients (%) [3] | HYPOALBUMINEMIA, patients (%) [3] | HYPOKALEMIA, patients (%) [3] | MUCOSITIS ORAL, patients (%) [3] | NAUSEA, patients (%) [3] | PLEURAL EFFUSION, patients (%) [3] | PRURITUS, patients (%) [3] | RASH, patients (%) [3] | VOMITING, patients (%) [3] | ACTIVATED PARTIAL THROMBOPLASTIN TIME PROLONGED, patients (%) [4] | ANOREXIA, patients (%) [4] | DIARRHEA, patients (%) [4] | EDEMA LIMBS, patients (%) [4] | ELECTROCARDIOGRAM QT CORRECTED INTERVAL PROLONGED, patients (%) [4] | FATIGUE, patients (%) [4] | FEBRILE NEUTROPENIA, patients (%) [4] | HYPOALBUMINEMIA, patients (%) [4] | HYPOPHOSPHATEMIA, patients (%) [4] | HYPOXIA, patients (%) [4] | LUNG INFECTION, patients (%) [4] | MUCOSITIS ORAL, patients (%) [4] | PLEURAL EFFUSION, patients (%) [4] | PRURITUS, patients (%) [4] | RASH MACULO-PAPULAR, patients (%) [4] | RASH, patients (%) [4] | RESPIRATORY FAILURE, patients (%) [4] | ACTIVATED PARTIAL THROMBOPLASTIN TIME PROLONGED, patients (%) [5] | ANOREXIA, patients (%) [5] | DIARRHEA, patients (%) [5] | EDEMA LIMBS, patients (%) [5] | ELECTROCARDIOGRAM QT CORRECTED INTERVAL PROLONGED, patients (%) [5] | FATIGUE, patients (%) [5] | FEBRILE NEUTROPENIA, patients (%) [5] | HYPOALBUMINEMIA, patients (%) [5] | HYPOKALEMIA, patients (%) [5] | HYPOPHOSPHATEMIA, patients (%) [5] | HYPOXIA, patients (%) [5] | LUNG INFECTION, patients (%) [5] | LYMPHOCYTE COUNT DECREASED, patients (%) [5] | MUCOSITIS ORAL, patients (%) [5] | NAUSEA, patients (%) [5] | NEUTROPHIL COUNT DECREASED, patients (%) [5] | PLATELET COUNT DECREASED, patients (%) [5] | PLEURAL EFFUSION, patients (%) [5] | PRURITUS, patients (%) [5] | RASH MACULO-PAPULAR, patients (%) [5] | RASH, patients (%) [5] | RESPIRATORY FAILURE, patients (%) [5] | WHITE BLOOD CELL DECREASED, patients (%) [5] | ACTIVATED PARTIAL THROMBOPLASTIN TIME PROLONGED, patients (%) [6] | ANOREXIA, patients (%) [6] | CONSTIPATION, patients (%) [6] | DIARRHEA, patients (%) [6] | DYSPNEA, patients (%) [6] | EDEMA LIMBS, patients (%) [6] | ELECTROCARDIOGRAM QT CORRECTED INTERVAL PROLONGED, patients (%) [6] | FATIGUE, patients (%) [6] | FEBRILE NEUTROPENIA, patients (%) [6] | HYPERGLYCEMIA, patients (%) [6]
1 (50): CONSTIPATION, patients (%) [4] | DYSPNEA, patients (%) [4] | HYPERGLYCEMIA, patients (%) [4] | HYPERTENSION, patients (%) [4] | HYPOKALEMIA, patients (%) [4] | LYMPHOCYTE COUNT DECREASED, patients (%) [4] | NAUSEA, patients (%) [4] | NEUTROPHIL COUNT DECREASED, patients (%) [4] | PLATELET COUNT DECREASED, patients (%) [4] | VOMITING, patients (%) [4] | WHITE BLOOD CELL DECREASED, patients (%) [4] | ANEMIA, patients (%) [5] | CONSTIPATION, patients (%) [5] | DYSPNEA, patients (%) [5] | HYPERGLYCEMIA, patients (%) [5] | HYPERTENSION, patients (%) [5] | VOMITING, patients (%) [5] | ANEMIA, patients (%) [6]
1 (20): LUNG INFECTION, patients (%) [1] | PLEURAL EFFUSION, patients (%) [1] | ACTIVATED PARTIAL THROMBOPLASTIN TIME PROLONGED, patients (%) [2] | DYSPNEA, patients (%) [2] | EDEMA LIMBS, patients (%) [2] | HYPERGLYCEMIA, patients (%) [2] | HYPERTENSION, patients (%) [2] | HYPOKALEMIA, patients (%) [2] | LYMPHOCYTE COUNT DECREASED, patients (%) [2] | PLEURAL EFFUSION, patients (%) [2] | RASH MACULO-PAPULAR, patients (%) [2] | HYPERTENSION, patients (%) [3] | HYPOPHOSPHATEMIA, patients (%) [3] | LUNG INFECTION, patients (%) [3] | RASH MACULO-PAPULAR, patients (%) [3]
3 (60): LYMPHOCYTE COUNT DECREASED, patients (%) [1] | NAUSEA, patients (%) [1] | DIARRHEA, patients (%) [2] | FATIGUE, patients (%) [2] | NAUSEA, patients (%) [2] | ANEMIA, patients (%) [3] | FEBRILE NEUTROPENIA, patients (%) [3]
